# Laboratory results taken from patent US20110256121A1, “METHODS AND KITS FOR DIAGNOSING OR MONITORING AUTOIMMUNE AND CHRONIC INFLAMMATORY DISEASES” (THE REGENTS OF THE UNIVERSITY OF MICHIGAN, priority 2008, published 2011).
# Legend:
# [1] = test system: T cell gene expression; experiment: Microarray detection of KIR expression in 5-azaC treated T cells; assay type: cell-based, human
# Experimental: (§1) T cell purification and culture. Peripheral blood mononuclear cells (PBMC) were isolated from healthy donors by density gradient centrifugation, stimulated for 18 hours with 1 μg/mlphytohemagglutinin (PHA) (Murex, Norcross, Ga.), then treated or not with 5 μm 5-azacytidine (5-azaC, Sigma, St. Louis, Mo.) for 72 hours as described (6). Total T cells, CD4^+ T cells or CD8′ T cells then were purified using the pan T cell isolation kit II or the CD4^+ and CD8^+ T cell isolation kit II from Miltenyi (Auburn, Calif.). T cells were typically >94% CD3^+ by flow cytometry. Jurkat cells (E6-1) were maintained in culture as described (11). This protocol was approved by the University of Michigan Institutional Review Board.
# Microarray analysis. RNA from 5-azaC treated and untreated T cells was analyzed with HG-U133A arrays (Affymetrix, Santa Clara Calif.), containing 22283 probe-sets representing ˜13000 distinct genes, as described (6). Probe-set intensities were obtained and normalized as described (12). Two-sample T-tests were used to compare groups, and fold-changes were determined using the ratio of the group means, after replacing means of less than 50 with 50. The array data are available from NCBI's Gene Expression Omnibus using series accession number GSE6008.
# Microarray detection of KIR expression in 5-azaC treated T cells. Effects of DNA methylation inhibition on T cell gene expression were tested by stimulating PBMC from healthy donors with PHA, treating with 5-azaC, and comparing gene expression patterns in treated and untreated T cells with microarrays. 682 probe-sets were obtained giving p<0.01, out of a total of 22283 probe-sets, so that approximately 223 of the 682 probe-sets were expected to be false-positives. Further demanding at least a 1.5 fold difference in the means of treated and untreated groups reduced the list to 250 probe-sets, 6 of which were KIR genes (KIR2DL1 5.7 fold p=0.003, KIR3DL1 5.7 fold p=0.001, KIR2DL2 4.2 fold p=0.0005, KIR2DS4 2.8 fold p=0.009, KIR2DL3 2.3 fold p=0.004, and KIR2DL4 1.7 fold p=0.008), out of a total of 12 KIR genes on the array, indicating enrichment of this gene family (FIG. 24).
# [2] = test system: KIR2DL2; experiment: KIR2DL2 transcripts by real-time quantitative RT-PCR; assay type: cell-based, human; settings: relative to β-actin, p<0.001 for both
# Experimental: as §1
# Real-time quantitative RT-PCR. Total RNA was isolated using the RNeasy Mini Kit (QIAGEN, Valencia, Calif.). Primers were designed to match polymorphic positions unique to KIR2DL2 or KIR2DL4 genes as described by Uhrberg et al. (13). Controls included β-actin primers as described (14). Real-time quantitative RT-PCR was performed with a Rotor-Gene 3000 (Corbett Robotics, San Francisco, Calif.) and QuantiTect SYBR Green RT-PCR kit (QIAGEN) according to manufacturer's instructions. cDNA synthesized from T cells was used to generate standard curves for β-actin, KIR2DL2 and KIR2DL4, and each experiment was repeated at least twice.
# Confirmation at the protein and mRNA levels. […]
structure (smiles),measurement,setting,value
"Nc1ncn([C@@H]2O[C@H](CO)[C@@H](O)[C@H]2O)c(=O)n1 [5-azaC, 5-azacytidine]","KIR2DL2 expression, treated vs untreated","[1]; PHA-stimulated, p=0.0005",4.2 fold
same,"KIR3DL1 expression, treated vs untreated","[1]; PHA-stimulated, p=0.001",5.7 fold
same,"KIR2DL1 expression, treated vs untreated","[1]; PHA-stimulated, p=0.003",5.7 fold
same,"KIR2DL3 expression, treated vs untreated","[1]; PHA-stimulated, p=0.004",2.3 fold
same,"KIR2DL4 expression, treated vs untreated","[1]; PHA-stimulated, p=0.008",1.7 fold
same,"KIR2DS4 expression, treated vs untreated","[1]; PHA-stimulated, p=0.009",2.8 fold
same,KIR2DS1 expression increase,[1]; not statistically significant,> 1.5 fold
same,KIR2DS3 expression increase,[1]; not statistically significant,> 1.5 fold
same,KIR3DL2 expression increase,[1]; not statistically significant,> 1.5 fold
same,KIR2DL2 mRNA in CD4+ and CD8+ T cells,[2],increase is significant in both subsets
